The nature of test [1]: Inhibition of LOX (unknown origin). Also noted: species or system Homo sapiens.
Test [2] in a line: Inhibition of soybean 5LOX using linoleic acid as substrate preincubated for 5 mins followed by substrate addition and measured after 20 mins by spectrophotometric analysis. The arrangement: species or system Glycine max.
Test [3] addresses T1, Polyunsaturated fatty acid 5-lipoxygenase (Homo sapiens, UniProt P09917).
T1 sequence (P09917 whole entry): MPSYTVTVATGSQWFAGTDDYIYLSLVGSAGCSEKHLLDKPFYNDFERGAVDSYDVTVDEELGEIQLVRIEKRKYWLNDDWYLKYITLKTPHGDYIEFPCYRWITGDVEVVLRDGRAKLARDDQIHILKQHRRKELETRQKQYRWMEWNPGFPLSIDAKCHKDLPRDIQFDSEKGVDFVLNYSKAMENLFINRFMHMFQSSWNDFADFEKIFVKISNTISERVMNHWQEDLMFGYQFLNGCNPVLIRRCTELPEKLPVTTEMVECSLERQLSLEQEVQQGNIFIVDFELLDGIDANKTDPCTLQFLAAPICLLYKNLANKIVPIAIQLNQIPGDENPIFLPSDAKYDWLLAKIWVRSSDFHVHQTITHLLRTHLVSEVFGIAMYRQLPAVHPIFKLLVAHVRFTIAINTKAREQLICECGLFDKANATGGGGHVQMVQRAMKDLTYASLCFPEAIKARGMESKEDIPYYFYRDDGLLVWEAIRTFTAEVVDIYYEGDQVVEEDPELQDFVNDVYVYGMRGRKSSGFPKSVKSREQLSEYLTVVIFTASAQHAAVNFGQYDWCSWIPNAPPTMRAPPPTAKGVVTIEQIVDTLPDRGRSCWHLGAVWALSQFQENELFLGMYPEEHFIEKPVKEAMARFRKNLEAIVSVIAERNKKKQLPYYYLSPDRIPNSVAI
The test is described as follows: Inhibition of 5-LOX (unknown origin).

Test [4] concerns Mus musculus. The test is described as follows: Anti-inflammatory activity in mouse assessed as inhibition of xylene induced ear edema at 30 mg/kg relative to control. The arrangement: scale not given: the % may be the effect or the level left. Format: functional.
In test [5] the target is T2, Polyunsaturated fatty acid lipoxygenase ALOX12 (Homo sapiens, UniProt P18054).
T2 sequence (P18054 whole entry): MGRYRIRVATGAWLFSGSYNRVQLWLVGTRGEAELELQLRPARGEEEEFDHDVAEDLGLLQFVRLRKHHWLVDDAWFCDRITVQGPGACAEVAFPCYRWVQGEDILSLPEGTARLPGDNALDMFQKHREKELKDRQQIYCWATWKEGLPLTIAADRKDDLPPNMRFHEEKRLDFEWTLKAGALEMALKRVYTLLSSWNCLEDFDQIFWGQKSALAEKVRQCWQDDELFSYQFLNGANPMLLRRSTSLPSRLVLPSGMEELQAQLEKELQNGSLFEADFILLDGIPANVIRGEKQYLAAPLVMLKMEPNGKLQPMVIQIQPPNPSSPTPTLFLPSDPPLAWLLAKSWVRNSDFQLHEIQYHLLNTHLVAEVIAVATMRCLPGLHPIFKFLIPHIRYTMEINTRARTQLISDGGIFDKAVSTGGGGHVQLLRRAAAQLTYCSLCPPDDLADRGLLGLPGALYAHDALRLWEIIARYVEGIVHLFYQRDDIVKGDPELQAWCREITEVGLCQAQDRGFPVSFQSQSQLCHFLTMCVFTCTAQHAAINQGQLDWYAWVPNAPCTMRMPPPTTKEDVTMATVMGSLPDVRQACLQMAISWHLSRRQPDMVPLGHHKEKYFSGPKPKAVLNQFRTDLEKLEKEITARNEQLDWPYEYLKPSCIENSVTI
The test is described as follows: Inhibition of human N-terminal His-tagged 12-LOX expressed in Escherichia coli(Rosetta) by rhodamine 123 dye-based fluorescence assay.

For test [6], the target named is T1, Polyunsaturated fatty acid 5-lipoxygenase. The test is described as follows: Inhibition of human N-terminal His-tagged 5-LOX expressed in Escherichia coli(Rosetta) by rhodamine 123 dye-based fluorescence assay.
Test [7] has as its target T3, Polyunsaturated fatty acid 5-lipoxygenase (Rattus norvegicus, UniProt P12527).
T3 sequence (P12527 whole entry): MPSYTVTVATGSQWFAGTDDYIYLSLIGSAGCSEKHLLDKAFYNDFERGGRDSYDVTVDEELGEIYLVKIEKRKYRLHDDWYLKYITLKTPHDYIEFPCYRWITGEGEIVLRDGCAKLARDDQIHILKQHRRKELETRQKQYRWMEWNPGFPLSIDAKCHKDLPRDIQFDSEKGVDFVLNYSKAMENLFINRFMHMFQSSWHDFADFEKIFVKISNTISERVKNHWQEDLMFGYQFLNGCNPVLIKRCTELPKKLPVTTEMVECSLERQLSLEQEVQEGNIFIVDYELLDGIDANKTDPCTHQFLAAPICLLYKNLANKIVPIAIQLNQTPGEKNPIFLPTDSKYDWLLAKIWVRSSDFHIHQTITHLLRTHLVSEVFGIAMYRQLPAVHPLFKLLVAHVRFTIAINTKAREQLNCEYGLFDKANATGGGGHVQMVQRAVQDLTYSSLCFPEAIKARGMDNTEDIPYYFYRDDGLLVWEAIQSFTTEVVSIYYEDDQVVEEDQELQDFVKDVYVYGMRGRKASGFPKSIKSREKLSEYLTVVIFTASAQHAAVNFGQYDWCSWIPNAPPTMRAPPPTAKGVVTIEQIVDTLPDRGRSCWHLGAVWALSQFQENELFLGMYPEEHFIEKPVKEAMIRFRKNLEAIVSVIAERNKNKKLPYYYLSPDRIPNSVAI
In words: Inhibition of rat 5-LOX expressed in Sf21 insect cells preincubated for 4 mins followed by AA substrate addition and measured after 4 mins by FOX assay.

The target in test [8] is T4, Arachidonate 5-lipoxygenase-activating protein (Homo sapiens, UniProt P20292).
T4 sequence (P20292 whole entry): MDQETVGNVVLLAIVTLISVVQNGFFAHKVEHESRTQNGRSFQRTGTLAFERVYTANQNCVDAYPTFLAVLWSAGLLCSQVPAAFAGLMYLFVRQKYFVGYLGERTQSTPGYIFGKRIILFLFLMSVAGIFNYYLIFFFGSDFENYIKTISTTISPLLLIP
The test is described as follows: Inhibition of FLAP in human neutrophils assessed as decrease in LT biosynthesis preincubated for 15 mins followed by AA substrate addition by HPLC analysis.

The nature of test [9]: Inhibition of soybean 15-LOX using linoleic acid as substrate preincubated for 15 mins followed by substrate addition and measured up to 6 mins by spectrophotometric analysis. Also noted: species or system Glycine max.
In test [10] the target is T4, Arachidonate 5-lipoxygenase-activating protein. In words: Inhibition of FLAP in human leukocytes assessed as decrease in ionophore A23187-induced LT biosynthesis after 10 mins. Format: cell-based.
Test [11] concerns the target T5, Seed linoleate 13S-lipoxygenase-1 (Glycine max, UniProt P08170).
T5 sequence (P08170 whole entry): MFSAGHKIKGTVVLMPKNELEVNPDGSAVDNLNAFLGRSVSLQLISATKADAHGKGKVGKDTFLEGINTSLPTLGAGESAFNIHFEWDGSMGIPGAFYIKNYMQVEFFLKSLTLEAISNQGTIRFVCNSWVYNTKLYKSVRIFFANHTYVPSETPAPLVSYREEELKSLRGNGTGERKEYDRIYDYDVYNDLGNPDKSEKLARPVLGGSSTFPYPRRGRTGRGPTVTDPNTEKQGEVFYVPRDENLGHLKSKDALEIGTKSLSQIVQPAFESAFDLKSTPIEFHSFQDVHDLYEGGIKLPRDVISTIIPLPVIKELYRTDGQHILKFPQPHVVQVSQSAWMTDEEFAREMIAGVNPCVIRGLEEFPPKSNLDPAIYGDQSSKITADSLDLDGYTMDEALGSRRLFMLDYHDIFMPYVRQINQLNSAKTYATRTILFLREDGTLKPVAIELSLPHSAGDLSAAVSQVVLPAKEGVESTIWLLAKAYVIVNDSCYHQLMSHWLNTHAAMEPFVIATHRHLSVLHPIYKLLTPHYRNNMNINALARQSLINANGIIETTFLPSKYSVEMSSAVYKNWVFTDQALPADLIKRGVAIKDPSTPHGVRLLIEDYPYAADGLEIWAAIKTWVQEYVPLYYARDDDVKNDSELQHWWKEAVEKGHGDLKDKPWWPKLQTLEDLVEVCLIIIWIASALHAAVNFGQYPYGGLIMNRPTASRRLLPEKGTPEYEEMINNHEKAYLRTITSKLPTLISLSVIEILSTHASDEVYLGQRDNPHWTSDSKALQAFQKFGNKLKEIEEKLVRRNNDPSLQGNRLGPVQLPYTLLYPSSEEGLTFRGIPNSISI
The test is described as follows: Inhibition of soybean LOX-1 using linoleic acid as substrate preincubated for 120 secs with substrate followed by enzyme addition and measured every 30 secs for 7.5 mins by spectrophotometric analysis.

Test [12] has as its target T6, Polyunsaturated fatty acid lipoxygenase ALOX15 (Homo sapiens) (UniProt P16050).
T6 sequence (whole entry): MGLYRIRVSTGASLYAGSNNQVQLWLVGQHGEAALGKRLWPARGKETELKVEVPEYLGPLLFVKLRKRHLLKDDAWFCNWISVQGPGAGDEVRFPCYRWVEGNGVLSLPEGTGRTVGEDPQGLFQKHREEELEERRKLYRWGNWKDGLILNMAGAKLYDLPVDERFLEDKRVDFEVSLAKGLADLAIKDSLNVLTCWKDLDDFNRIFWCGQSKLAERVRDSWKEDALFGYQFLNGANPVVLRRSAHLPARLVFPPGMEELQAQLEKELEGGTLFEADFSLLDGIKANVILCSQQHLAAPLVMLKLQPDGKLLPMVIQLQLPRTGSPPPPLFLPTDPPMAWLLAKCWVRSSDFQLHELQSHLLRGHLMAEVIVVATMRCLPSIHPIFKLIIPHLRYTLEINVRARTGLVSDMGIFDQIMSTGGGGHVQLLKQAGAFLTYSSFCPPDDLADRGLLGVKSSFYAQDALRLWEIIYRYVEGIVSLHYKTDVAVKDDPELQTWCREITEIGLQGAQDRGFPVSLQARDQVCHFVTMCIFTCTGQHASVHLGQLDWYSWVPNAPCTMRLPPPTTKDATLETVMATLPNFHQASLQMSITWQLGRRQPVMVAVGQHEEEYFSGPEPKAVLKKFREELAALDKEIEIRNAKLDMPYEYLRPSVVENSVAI
In words: Inhibition of 15-LOX (unknown origin) at 12.7 uM relative to control.

In test [13] the target is T7, Polyunsaturated fatty acid lipoxygenase ALOX15 (Homo sapiens, UniProt P16050).
T7 sequence (P16050 whole entry): T6 sequence (whole entry)
The test is described as follows: Inhibition of human N-terminal His-tagged 15-LOX expressed in Escherichia coli(Rosetta) by rhodamine 123 dye-based fluorescence assay.

A word on the IC50: it is the concentration at which inhibition is half-maximal. The compound `O=C(O)CCCc1c[nH]c2ccccc12` had an IC50 in test [1] of 17800 nM.

The compound `COc1ccc2nc(NCC(O)COc3ccc4c(C)cc(=O)oc4c3)sc2c1` (stereo not given) showed a half-inhibitory concentration (IC50) in [2] of 2100 nM.

In turn, `CS(=O)(=O)c1ccc(-n2nc(-c3ccc(-c4ccccc4)cc3)c3ccccc3c2=O)cc1` showed a 50% inhibitory concentration (IC50) in test [3] of 6200 nM.

Consider `Cc1cc(=O)oc2cc(OCC(O)CNc3nc4ccc(Cl)cc4s3)ccc12` (stereo not given), for which, in test [2], the IC50 stood at 2800 nM.

In test [1], `CS(=O)(=O)c1ccc(-c2nc(SCCN(O)C(N)=O)nn2-c2ccc(Br)cc2)cc1` displayed a concentration for half-maximal inhibition (IC50) of 850 nM. Also, the Activity in test [4] was found to be 54.1%.

On to `CC(C)/C=C/c1c(O)cc(-c2cc3ccc(O)cc3o2)cc1O`, for which the IC50 came to 1300 nM in test [5] and 1670 nM in test [6].

In test [7], `Cc1cc(Nc2nc(-c3ccc(Cl)cc3)cs2)cc(C)c1O` showed a concentration for half-maximal inhibition (IC50) of 127 nM.

For the compound `Cc1ccc(-c2cc(C(F)(F)F)nn2-c2ccc(S(N)(=O)=O)cc2)cc1` [CELECOXIB], the Activity in test [4] turned out to be 46.7%.

Take `Cc1noc(-c2ccc(OCc3ccc4ccccc4n3)cc2)c1-c1ccc(Cl)cc1`: in test [8], the IC50 came to 4400 nM.

`O=C(Cc1c[nH]c2ccccc12)NN=C(c1ccccc1)c1ccccc1` returned a half-inhibitory concentration (IC50) in test [1] of 53600 nM.

In turn, `O=C(O)Cc1c[nH]c2ccccc12` [INDOLE-3-ACETIC ACID] gave an IC50 in test [1] of 43000 nM.

Compound `CCCCC(=O)c1c(O)cc(O)c(C/C=C(\C)CCC=C(C)C)c1O` came in with an IC50 in test [9] of 10300 nM.

Turning to `CC(C)c1ccc2c(c1)c(SC(C)(C)C)c(CC(C)(C)C(=O)O)n2Cc1ccc(Cl)cc1`, in test [10], the IC50 turned out to be 102 nM.

As for `CC[C@H](C)/C=C(C)/C=C/C1=C(Br)C2=CC(=O)C(C)(O)C(=O)C2=CO1` (stereo not given in full), the IC50 in test [11] is 3200 nM.

As a reminder, the inhibition is how much of the control response was suppressed. Regarding `C/C(=C\COc1cc2oc(=O)ccc2cc1O)C/C=C/C(C)(C)O`, the inhibition in test [12] came out at 34.8%.

Regarding `CC(C)=CCc1c(O)cc(-c2cc3ccc(O)cc3o2)cc1O` [MORACIN C], the IC50 in test [5] stood at 210 nM; in [13], 1210 nM; in [6] it was 2350 nM.

(Values after ChEMBL document CHEMBL4257455, “Recent development of lipoxygenase inhibitors as anti-inflammatory agents” (Medchemcomm, 2018).)
